Results as given in BindingDB's records for doi:10.1016/j.bioorg.2014.07.011 (Shenyang Pharmaceutical University, 2014).

Tests used:
Assay in all cases: HTRF kinase assay
Conditions in all cases: pH 7; 25 °C
[1] = biological target: Hepatocyte growth factor receptor (Homo sapiens, UniProt P08581)
Protocol: The c-Met kinase activity was evaluated by homogeneous time-resolved fluorescence (HTRF) assays. In a 384-well plate, 20 µg/mL (Glue, Tyr) 4:1 was added, followed by the addition of 50 µL of 10 mM ATP solution diluted in kinase reaction buffer (50 mM HEPES, pH 7.0, […], and 0.1% NaN3) into each well. Various concentrations of compounds diluted in 10 µL of 1% DMSO (v/v) […]. The reaction was initiated by the addition of purified c-Met kinase diluated in 39 µL of kinase reaction buffer solution. The reaction was incubated for 30 min at 25 °C and stopped by the addition of 5 µL of Streptavidin-XL665 and 5 µL Tk Antibody Cryptate working solution to all of the wells.

[2] = biological target: T1, Epidermal growth factor receptor [1-973] (Homo sapiens, UniProt P00533)
T1 construct: 1-973

[3] = biological target: Macrophage-stimulating protein receptor (Homo sapiens, UniProt Q04912)
[4] = biological target: T2, Mast/stem cell growth factor receptor Kit [1-973] (Homo sapiens, UniProt P10721)
T2 construct: 1-973

[5] = biological target: T3, Platelet-derived growth factor receptor alpha [1-973] (Homo sapiens, UniProt P16234)
T3 construct: 1-973

[6] = biological target: T4, Receptor-type tyrosine-protein kinase FLT3 (Homo sapiens, UniProt P36888)
T4 sequence (P36888 whole entry): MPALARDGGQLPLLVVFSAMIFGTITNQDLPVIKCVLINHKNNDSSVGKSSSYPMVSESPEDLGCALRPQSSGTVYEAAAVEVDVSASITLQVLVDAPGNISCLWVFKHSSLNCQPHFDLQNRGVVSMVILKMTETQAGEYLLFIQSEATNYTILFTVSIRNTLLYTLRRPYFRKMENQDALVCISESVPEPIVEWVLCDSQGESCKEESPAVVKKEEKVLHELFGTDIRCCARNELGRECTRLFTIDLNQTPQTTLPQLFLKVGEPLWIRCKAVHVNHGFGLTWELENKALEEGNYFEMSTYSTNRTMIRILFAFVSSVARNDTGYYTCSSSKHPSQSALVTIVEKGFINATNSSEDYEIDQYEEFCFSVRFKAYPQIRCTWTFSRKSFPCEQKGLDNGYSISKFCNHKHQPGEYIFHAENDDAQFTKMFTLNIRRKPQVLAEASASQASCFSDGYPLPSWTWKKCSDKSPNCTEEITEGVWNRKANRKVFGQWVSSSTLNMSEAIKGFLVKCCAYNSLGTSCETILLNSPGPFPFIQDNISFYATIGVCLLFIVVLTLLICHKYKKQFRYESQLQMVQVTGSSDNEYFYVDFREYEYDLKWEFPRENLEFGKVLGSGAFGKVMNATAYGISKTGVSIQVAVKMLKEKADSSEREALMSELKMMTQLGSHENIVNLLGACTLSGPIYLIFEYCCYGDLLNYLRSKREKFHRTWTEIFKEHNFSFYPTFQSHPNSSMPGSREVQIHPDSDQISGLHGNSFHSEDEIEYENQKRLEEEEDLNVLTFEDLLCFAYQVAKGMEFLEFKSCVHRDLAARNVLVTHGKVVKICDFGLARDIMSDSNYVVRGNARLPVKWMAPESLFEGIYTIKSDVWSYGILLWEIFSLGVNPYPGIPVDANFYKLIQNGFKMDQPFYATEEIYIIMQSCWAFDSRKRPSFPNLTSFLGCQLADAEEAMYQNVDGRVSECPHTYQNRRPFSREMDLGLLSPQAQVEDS

[7] = biological target: Vascular endothelial growth factor receptor 1 (Homo sapiens, UniProt P17948)
[8] = biological target: Vascular endothelial growth factor receptor 2 (Homo sapiens, UniProt P35968)

Chain of Hepatocyte growth factor receptor (P08581 whole entry): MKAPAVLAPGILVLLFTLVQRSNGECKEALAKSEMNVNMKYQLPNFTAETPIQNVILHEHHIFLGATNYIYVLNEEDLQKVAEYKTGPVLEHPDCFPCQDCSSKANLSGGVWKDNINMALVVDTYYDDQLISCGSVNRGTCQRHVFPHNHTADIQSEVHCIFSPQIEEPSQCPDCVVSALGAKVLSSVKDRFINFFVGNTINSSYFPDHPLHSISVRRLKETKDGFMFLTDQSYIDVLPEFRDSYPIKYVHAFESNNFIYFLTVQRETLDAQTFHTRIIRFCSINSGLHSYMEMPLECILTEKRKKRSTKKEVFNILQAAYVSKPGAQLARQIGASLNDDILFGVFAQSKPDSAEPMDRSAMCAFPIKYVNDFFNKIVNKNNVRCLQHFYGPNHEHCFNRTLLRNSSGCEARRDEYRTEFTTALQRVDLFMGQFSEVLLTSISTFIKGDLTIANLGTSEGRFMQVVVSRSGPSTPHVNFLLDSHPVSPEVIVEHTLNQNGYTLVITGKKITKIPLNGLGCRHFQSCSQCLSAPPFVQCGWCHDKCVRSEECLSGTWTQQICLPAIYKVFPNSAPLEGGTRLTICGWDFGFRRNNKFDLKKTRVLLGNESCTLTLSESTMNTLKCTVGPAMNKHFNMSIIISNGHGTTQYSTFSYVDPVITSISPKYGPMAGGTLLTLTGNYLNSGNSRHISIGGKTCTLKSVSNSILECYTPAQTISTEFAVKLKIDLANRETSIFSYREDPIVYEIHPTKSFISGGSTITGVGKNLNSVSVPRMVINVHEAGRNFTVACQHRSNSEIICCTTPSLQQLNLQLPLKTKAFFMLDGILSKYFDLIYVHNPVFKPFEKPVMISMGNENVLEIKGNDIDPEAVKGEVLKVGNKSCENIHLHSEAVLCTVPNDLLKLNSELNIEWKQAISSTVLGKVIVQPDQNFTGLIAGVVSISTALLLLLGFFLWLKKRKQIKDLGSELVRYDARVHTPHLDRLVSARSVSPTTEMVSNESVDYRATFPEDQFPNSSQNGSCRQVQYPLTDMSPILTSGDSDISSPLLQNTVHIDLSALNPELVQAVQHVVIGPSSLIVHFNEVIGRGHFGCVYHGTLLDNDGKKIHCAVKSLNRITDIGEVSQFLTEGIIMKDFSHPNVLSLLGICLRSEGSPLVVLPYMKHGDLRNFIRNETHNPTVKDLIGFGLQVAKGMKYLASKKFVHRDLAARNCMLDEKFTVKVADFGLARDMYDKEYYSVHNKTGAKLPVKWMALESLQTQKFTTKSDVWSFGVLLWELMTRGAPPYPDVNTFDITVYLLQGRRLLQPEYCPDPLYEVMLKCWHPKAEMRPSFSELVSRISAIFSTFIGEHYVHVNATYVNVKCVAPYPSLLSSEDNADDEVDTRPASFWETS
T1 sequence (P00533 1-973): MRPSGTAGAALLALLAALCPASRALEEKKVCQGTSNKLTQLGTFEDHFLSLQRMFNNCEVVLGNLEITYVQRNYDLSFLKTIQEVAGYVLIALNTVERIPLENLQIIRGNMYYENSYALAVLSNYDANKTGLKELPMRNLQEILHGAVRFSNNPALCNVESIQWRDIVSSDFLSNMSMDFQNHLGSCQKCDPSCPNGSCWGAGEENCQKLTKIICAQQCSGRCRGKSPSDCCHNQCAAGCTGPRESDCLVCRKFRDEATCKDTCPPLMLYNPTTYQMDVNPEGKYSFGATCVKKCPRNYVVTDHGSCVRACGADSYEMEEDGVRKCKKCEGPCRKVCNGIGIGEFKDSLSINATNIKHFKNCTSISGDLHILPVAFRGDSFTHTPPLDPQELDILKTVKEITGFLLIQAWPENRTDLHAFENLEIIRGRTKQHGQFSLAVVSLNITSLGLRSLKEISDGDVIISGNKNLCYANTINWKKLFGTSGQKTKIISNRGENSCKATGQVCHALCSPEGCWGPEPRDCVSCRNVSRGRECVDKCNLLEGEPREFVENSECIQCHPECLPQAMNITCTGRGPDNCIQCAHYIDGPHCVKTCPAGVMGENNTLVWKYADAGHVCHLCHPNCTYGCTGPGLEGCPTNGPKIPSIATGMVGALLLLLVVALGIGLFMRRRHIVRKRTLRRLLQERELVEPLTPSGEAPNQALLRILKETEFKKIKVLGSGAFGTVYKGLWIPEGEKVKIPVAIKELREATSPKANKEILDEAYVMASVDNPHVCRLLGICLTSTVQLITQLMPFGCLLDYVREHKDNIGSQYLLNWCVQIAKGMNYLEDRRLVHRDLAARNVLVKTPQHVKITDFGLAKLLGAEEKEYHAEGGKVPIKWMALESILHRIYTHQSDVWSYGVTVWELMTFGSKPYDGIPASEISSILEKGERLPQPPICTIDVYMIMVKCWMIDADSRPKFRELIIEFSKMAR
T2 sequence (P10721 1-973): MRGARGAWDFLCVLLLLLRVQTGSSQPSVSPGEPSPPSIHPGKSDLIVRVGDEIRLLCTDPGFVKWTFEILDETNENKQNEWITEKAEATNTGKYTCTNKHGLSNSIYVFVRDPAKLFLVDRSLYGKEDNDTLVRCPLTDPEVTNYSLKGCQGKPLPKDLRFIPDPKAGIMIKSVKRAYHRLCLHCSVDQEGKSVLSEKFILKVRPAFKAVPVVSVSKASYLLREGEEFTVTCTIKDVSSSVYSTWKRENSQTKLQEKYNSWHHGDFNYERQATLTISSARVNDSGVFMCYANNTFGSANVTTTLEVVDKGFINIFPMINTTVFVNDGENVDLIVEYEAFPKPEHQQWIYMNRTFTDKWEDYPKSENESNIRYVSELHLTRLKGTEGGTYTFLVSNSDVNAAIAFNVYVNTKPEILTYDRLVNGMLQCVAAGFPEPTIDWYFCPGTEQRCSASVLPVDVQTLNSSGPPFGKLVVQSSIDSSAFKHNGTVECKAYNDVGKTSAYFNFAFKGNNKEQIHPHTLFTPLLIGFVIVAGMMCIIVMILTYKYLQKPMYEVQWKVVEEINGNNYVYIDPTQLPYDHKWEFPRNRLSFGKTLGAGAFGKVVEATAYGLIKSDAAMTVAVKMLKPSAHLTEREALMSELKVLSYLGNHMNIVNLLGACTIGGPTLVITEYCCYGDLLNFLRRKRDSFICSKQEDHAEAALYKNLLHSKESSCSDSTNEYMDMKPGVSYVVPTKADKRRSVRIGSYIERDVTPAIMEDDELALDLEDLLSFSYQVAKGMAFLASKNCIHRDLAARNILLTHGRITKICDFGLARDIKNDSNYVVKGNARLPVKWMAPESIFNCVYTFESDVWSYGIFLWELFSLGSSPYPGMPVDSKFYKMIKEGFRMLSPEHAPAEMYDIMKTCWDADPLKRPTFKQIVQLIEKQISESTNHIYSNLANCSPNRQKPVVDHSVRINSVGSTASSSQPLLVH
Chain of Macrophage-stimulating protein receptor (Q04912 25-304 limits assumed): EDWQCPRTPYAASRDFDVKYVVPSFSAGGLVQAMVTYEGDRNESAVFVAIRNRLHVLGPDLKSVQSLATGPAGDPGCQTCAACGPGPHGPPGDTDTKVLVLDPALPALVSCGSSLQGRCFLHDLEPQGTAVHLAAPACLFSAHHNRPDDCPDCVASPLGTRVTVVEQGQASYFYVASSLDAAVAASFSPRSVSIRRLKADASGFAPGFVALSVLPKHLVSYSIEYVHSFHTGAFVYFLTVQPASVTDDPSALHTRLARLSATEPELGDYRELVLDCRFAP
Chain of Macrophage-stimulating protein receptor (Q04912 310-1400 limits assumed): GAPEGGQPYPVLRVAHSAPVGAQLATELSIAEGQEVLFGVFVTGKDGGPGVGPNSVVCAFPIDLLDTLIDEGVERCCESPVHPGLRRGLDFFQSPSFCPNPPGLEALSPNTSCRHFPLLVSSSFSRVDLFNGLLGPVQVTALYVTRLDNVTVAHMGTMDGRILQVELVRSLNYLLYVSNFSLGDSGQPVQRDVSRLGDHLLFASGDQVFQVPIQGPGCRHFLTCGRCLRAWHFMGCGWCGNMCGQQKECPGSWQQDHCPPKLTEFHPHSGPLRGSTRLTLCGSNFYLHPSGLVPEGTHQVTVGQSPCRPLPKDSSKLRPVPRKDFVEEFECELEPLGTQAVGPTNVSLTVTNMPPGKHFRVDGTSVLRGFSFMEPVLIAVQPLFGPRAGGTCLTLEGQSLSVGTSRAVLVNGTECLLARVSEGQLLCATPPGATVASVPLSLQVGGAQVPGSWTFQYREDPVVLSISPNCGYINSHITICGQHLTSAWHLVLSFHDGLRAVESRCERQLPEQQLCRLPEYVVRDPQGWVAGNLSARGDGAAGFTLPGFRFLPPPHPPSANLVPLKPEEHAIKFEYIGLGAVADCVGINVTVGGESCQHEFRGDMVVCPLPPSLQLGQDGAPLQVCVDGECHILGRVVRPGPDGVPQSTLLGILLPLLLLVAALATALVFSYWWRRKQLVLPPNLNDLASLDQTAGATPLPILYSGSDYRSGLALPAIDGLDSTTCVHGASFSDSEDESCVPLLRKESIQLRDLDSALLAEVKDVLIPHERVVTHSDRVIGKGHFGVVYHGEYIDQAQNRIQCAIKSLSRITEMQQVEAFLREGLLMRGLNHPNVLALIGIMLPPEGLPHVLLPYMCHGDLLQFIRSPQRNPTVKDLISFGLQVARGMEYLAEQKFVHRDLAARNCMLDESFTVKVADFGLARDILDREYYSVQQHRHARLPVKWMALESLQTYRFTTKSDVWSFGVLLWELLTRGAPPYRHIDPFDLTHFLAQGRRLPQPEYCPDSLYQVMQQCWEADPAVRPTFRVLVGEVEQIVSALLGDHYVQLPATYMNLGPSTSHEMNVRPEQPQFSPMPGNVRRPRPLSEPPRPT

## COc1cc2c(Oc3ccc(N=Cc4c(O)n(-c5ccccc5C(F)(F)F)c(=O)n4C)cc3F)ccnc2cc1OCCCN1CCCC1 [(E)-5-(((3-fluoro-4-((6-methoxy-7-(3-(pyrrolidin-1-yl)propoxy)quinolin-4-yl)oxy)phenyl)amino)methylene)-1-methyl-3-(2-(trifluoromethyl)phenyl)imidazolidine-2,4-dione (38)]
[1]
  IC50: 2.75 nM

## COc1cc2c(Oc3ccc(N=Cc4c(O)n(-c5ccccc5F)c(=O)n4C)cc3F)ccnc2cc1OCCCN1CCOCC1 [(E)-5-(((3-fluoro-4-((6-methoxy-7-(3-morpholinopropoxy)quinolin-4-yl)oxy)phenyl)amino)methylene)-3-(2-fluorophenyl)-1-methylimidazolidine-2,4-dione (40)]
[1]
  IC50: 8.78 nM

## COc1cc2c(Oc3ccc(N=Cc4c(C)[nH]n(-c5ccccc5C(F)(F)F)c4=O)cc3F)ccnc2cc1OCCCN1CCCCC1 [(Z)-4-(((3-fluoro-4-((6-methoxy-7-(3-(piperidin-1-yl)propoxy)quinolin-4-yl)oxy)phenyl)amino)methylene)-3-methyl-1-(2-(trifluoromethyl)phenyl)-1H-pyrazol-5(4H)-one (21)]
[1]
  IC50: 6.63 nM

## COc1cc2c(Oc3ccc(N=Cc4c(C)[nH]n(-c5ccccc5C(F)(F)F)c4=O)cc3F)ccnc2cc1OCCCN1CCCC1 [(Z)-4-(((3-fluoro-4-((6-methoxy-7-(3-(pyrrolidin-1-yl)propoxy)quinolin-4-yl)oxy)phenyl)amino)methylene)-3-methyl-1-(2-(trifluoromethyl)phenyl)-1H-pyrazol-5(4H)-one (13)]
[1]
  IC50: 5.04 nM

## COc1cc2c(Oc3ccc(N=Cc4c(C)[nH]n(-c5ccccc5C(F)(F)F)c4=O)cc3F)ccnc2cc1OCCCN1CCOCC1 [(Z)-4-(((3-fluoro-4-((6-methoxy-7-(3-morpholinopropoxy)quinolin-4-yl)oxy)phenyl)amino)methylene)-3-methyl-1-(2-(trifluoromethyl)phenyl)-1H-pyrazol-5(4H)-one (17)]
[1]
  IC50: 2.2 nM
[2]
  IC50: > 10000 nM
[3]
  IC50: 4.24 nM
[4]
  IC50: 2.3 nM
[5]
  IC50: 32.2 nM
[6]
  IC50: 8.38 nM
[7]
  IC50: 8.56 nM
[8]
  IC50: 326 nM
